Experimental data reported in the NIST ThermoML archive (doi:10.1016/j.tca.2014.05.029).
Numbers after ± are expanded uncertainties.

Tests used:
[1] = Crystal; DTA
[2] = Molar enthalpy of transition or fusion; conditions: Crystal; DSC
[3] = molar heat capacity at constant pressure; conditions: 101.33 kPa, Liquid, Small sample (50 mg) DSC

OC[C@H]1O[C@@](CO)(O[C@H]2O[C@H](CO)[C@@H](O)[C@H](O)[C@H]2O)[C@@H](O)[C@@H]1O [D-sucrose]
Conditions | Molar enthalpy of transition or fusion [kcal/mol] | Normal melting temperature [°C]
[1] | – | 151.2 ± 0.5
[2] | 7.65 ± 0.239 | –

[3]
Conditions | molar heat capacity at constant pressure [J/K/mol]
331 K | 746.98 ± 15
340 K | 756.97 ± 15
350 K | 768.07 ± 15
360 K | 779.17 ± 16
370 K | 790.27 ± 16
380 K | 801.37 ± 16
390 K | 812.47 ± 16
400 K | 823.57 ± 16
410 K | 834.67 ± 17
420 K | 845.77 ± 17
424 K | 850.21 ± 17
430 K | 856.87 ± 17
440 K | 867.97 ± 17
450 K | 879.07 ± 18
460 K | 890.17 ± 18
470 K | 901.27 ± 18
480 K | 912.37 ± 18
490 K | 923.47 ± 18
500 K | 934.57 ± 19
510 K | 945.67 ± 19
520 K | 956.77 ± 19
530 K | 967.87 ± 19
540 K | 978.97 ± 20
550 K | 990.07 ± 20
560 K | 1001.2 ± 20
570 K | 1012.3 ± 20
580 K | 1023.4 ± 20
590 K | 1034.5 ± 21
600 K | 1045.6 ± 21
